Experimental findings from ChEMBL document CHEMBL2046384, “Discovery of novel benzylidene-1,3-thiazolidine-2,4-diones as potent and selective inhibitors of the PIM-1, PIM-2, and PIM-3 protein kinases” (Bioorg Med Chem Lett, 2012) are described below.

Structures are written as SMILES. In brackets after ≈: the same amount, converted by molar mass. Activity calls are given as the source filed them. The rule behind the calls is not given here.

The target of data set [1] is T1, Serine/threonine-protein kinase pim-2 (Homo sapiens, UniProt Q9P1W9). Put plainly: Inhibition of human PIM2 using FITC-(AHX)RSRHSSYPAGT-COOH as substrate after 90 mins by mobility shift assay in presence of 50 uM ATP.
Target sequence in this assay (Q9P1W9 whole entry): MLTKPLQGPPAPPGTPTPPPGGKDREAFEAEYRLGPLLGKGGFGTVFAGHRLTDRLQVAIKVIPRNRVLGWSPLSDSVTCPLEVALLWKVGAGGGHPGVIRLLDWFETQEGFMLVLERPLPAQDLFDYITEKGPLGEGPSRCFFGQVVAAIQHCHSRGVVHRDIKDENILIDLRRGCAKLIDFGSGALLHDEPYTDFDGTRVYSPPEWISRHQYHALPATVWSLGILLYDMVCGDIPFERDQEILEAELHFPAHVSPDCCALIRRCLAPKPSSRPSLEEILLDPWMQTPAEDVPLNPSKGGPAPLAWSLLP
In data set [2] the target is T2, Serine/threonine-protein kinase pim-3 (Homo sapiens, UniProt Q86V86). Kind of data set: Inhibition of human PIM3 using FITC-(AHX)RSRHSSYPAGT-COOH as substrate after 90 mins by mobility shift assay in presence of 50 uM ATP.
Data set [3] deals with T1, Serine/threonine-protein kinase pim-2. Kind of data set: Inhibition of human PIM2 using FITC-(AHX)RSRHSSYPAGT-COOH as substrate after 90 mins by mobility shift assay in presence of 5 mM ATP.
Target sequence in this assay (Q9P1W9 whole entry): as the sequence (Q9P1W9 whole entry) above
The target of data set [4] is T3, Serine/threonine-protein kinase pim-1 (Homo sapiens, UniProt P11309). Put plainly: Inhibition of human PIM1 using FITC-(AHX)RSRHSSYPAGT-COOH as substrate after 90 mins by mobility shift assay in presence of 5 mM ATP.
Target sequence in this assay (P11309 whole entry): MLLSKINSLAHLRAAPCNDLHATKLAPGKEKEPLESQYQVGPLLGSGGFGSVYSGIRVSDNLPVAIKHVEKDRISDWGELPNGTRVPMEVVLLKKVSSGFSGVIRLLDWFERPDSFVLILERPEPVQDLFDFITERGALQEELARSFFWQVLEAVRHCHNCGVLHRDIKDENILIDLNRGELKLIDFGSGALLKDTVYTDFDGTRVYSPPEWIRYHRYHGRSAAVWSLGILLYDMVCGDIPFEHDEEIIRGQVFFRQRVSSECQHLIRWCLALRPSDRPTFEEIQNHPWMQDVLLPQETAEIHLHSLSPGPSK
The target of data set [5] is Voltage-gated inwardly rectifying potassium channel KCNH2 (Homo sapiens, UniProt Q12809). Put plainly: Inhibition of human ERG.
Sequence of Voltage-gated inwardly rectifying potassium channel KCNH2 (Q12809 whole entry): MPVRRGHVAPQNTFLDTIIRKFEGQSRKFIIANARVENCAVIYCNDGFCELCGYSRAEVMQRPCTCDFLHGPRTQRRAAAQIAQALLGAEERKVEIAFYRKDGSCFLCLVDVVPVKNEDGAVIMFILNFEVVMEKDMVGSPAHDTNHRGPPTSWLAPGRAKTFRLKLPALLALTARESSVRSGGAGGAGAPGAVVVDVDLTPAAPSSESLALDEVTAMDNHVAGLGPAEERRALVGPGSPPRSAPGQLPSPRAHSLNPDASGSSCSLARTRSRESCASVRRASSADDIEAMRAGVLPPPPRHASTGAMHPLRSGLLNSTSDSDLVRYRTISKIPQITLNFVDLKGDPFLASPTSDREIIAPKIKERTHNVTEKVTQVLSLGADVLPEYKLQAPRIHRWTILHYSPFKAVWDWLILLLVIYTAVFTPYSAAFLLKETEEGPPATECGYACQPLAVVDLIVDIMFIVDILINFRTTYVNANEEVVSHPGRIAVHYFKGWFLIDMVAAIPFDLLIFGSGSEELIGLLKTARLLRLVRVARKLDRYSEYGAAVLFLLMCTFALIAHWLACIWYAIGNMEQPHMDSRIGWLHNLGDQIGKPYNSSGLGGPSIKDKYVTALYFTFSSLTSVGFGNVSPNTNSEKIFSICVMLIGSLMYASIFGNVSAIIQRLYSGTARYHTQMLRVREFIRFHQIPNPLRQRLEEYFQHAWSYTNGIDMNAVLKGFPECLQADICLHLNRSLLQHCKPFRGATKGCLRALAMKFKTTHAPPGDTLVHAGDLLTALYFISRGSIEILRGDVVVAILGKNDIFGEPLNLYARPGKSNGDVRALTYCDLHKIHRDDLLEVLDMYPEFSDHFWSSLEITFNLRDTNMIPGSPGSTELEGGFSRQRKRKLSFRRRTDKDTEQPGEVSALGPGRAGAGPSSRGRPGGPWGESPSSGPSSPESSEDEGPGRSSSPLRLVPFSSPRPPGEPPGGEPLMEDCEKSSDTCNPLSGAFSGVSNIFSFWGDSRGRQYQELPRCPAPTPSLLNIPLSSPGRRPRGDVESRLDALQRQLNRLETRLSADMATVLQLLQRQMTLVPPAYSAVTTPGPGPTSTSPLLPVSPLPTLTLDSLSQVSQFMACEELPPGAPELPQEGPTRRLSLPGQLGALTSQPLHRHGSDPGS
The target in data set [6] is T2, Serine/threonine-protein kinase pim-3. Put plainly: Inhibition of human PIM3 using FITC-(AHX)RSRHSSYPAGT-COOH as substrate after 90 mins by mobility shift assay in presence of 5 mM ATP.
Data set [7] can be described thus: Equilibrium solubility of the compound in phosphate buffer after 24 hrs at pH 7.4. The data set is classed as physicochemical.
Data set [8] is described as follows: Antiproliferative activity against human MOLM16 cells after 72 hrs by Cell Titer-Blue assay. To be noted: MOLM16, 72 h. The class given is functional. Background: Alamar Blue is a resazurin reagent that responds to reducing activity.
The target in data set [9] is T3, Serine/threonine-protein kinase pim-1. Kind of data set: Inhibition of human PIM1 using FITC-(AHX)RSRHSSYPAGT-COOH as substrate after 90 mins by mobility shift assay in presence of 50 uM ATP.
Target sequence in this assay (P11309 whole entry): as the sequence (P11309 whole entry) above
A short description of data set [10]: in vitro. To be noted: rat, liver microsomes. In general terms: Liver microsomes are vesicles of endoplasmic reticulum, rich in cytochrome P450 enzymes.
For data set [11], the target named is T2, Serine/threonine-protein kinase pim-3. The note with it: 1 uM.
Data set [12] addresses Phosphatidylinositol 4,5-bisphosphate 3-kinase catalytic subunit gamma isoform (Homo sapiens) (UniProt P48736). Put plainly: Inhibition of PI3Kgamma at 1 uM.
Data set [13] concerns the target T1, Serine/threonine-protein kinase pim-2. The note with it: 1 uM.
Target sequence in this assay (Q9P1W9 whole entry, looked up): as the sequence (Q9P1W9 whole entry) above
In data set [14] the target is T3, Serine/threonine-protein kinase pim-1. To be noted: 1 uM.
Target sequence in this assay (P11309 whole entry, looked up): as the sequence (P11309 whole entry) above
Data set [15] concerns the target Cyclin-dependent kinase 2 (Homo sapiens) (UniProt P24941). Kind of data set: Inhibition of CDK2 at 1 uM.
Data set [16] is described as follows: Dissociation constant, pKa of the compound. The class given is physicochemical.

Sequence of Phosphatidylinositol 4,5-bisphosphate 3-kinase catalytic subunit gamma isoform (Homo sapiens) (P48736 whole entry, looked up, canonical isoform): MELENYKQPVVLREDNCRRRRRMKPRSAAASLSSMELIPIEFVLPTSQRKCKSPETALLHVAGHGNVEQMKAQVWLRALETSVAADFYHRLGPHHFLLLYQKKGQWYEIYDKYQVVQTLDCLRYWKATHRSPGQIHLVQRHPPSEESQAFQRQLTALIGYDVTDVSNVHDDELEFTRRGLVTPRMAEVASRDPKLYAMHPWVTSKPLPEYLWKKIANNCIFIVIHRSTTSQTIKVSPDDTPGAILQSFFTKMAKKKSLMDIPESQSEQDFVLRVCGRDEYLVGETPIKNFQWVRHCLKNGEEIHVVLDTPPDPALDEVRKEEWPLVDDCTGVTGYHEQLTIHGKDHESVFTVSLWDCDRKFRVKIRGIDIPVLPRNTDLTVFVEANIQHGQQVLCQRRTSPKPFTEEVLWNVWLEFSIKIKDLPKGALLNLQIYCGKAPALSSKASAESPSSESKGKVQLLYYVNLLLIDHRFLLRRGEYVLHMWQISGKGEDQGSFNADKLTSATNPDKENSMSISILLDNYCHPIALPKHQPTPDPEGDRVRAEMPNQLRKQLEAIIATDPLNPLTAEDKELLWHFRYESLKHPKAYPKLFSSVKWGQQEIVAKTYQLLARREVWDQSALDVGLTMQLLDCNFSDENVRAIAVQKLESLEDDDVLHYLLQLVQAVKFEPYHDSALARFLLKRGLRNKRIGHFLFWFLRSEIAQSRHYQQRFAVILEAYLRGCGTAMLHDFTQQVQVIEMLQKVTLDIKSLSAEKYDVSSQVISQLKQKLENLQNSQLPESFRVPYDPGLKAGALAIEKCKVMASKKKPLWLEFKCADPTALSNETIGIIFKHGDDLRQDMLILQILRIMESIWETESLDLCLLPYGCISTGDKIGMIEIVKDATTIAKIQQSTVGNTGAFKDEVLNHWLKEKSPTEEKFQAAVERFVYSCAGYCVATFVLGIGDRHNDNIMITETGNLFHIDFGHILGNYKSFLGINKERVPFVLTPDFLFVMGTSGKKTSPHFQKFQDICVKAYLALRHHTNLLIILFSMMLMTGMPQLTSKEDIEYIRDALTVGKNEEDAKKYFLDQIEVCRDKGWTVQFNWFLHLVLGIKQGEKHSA

Turning to `N[C@@H]1CCCN(c2ccccc2/C=C2\SC(=O)NC2=O)C1`, the IC50 in data set [1] was 0.014 µM; in data set [2], 0.009 µM; in data set [3] it was 1.2 µM; in data set [4], 0.1 µM; in data set [5], > 30 µM; in data set [6], 0.24 µM. For the same compound, the half-inhibitory concentration (IC50) in data set [9] was determined as 0.009 µM. The thermodynamic solubility at 24 h in data set [7] amounted to 782 µM (≈ 237 µg/mL). In data set [8], this compound yielded a GI50 of 0.49 µM.
As for `O=C1NC(=O)/C(=C/c2cccc(Cl)c2N2CCNCC2)S1`, the figures for the IC50 in data set [1], in [2] and in [9] were 0.082 µM, 0.026 µM and 0.018 µM, respectively.
For the compound `N[C@@H]1CCCN(c2c(/C=C3\SC(=O)NC3=O)cccc2-c2ccncc2)C1`, the half-maximal inhibitory concentration (IC50) in [1] is 0.019 µM; in data set [2], 0.004 µM; in data set [3], 0.69 µM; in data set [4], 0.004 µM; in data set [6], 0.038 µM; in data set [9] it was < 0.003 µM. In data set [7], this compound came in with a thermodynamic solubility at 24 h of 142 µM (≈ 54 µg/mL). Also, the GI50 in data set [8] turned out to be 2.28 µM.
On to `CCOc1cc(/C=C2\SC(=O)NC2=O)ccc1O`, for which the half-inhibitory concentration (IC50) in data set [1] came out at 0.16 µM; in data set [2] it was 0.39 µM; in [9], 0.16 µM.
As to `CCOc1cccc(/C=C2\SC(=O)NC2=O)c1N1CCC[C@@H](N)C1`, the 50% inhibitory concentration (IC50) was < 0.004 µM in data set [1]; < 0.003 µM in data set [2]; 0.16 µM in [3]; 0.01 µM in data set [4]; 0.006 µM in data set [6]; < 0.003 µM in data set [9]. The thermodynamic solubility at 24 h in data set [7] was > 1000 µM. This compound had an intrinsic metabolic clearance (microsomal CLint) at 2 µM in data set [10] of 12.1 µL/min/mg. The same compound came in with a concentration for 50% growth inhibition (GI50) in data set [8] of 0.08 µM.
On to `N[C@H]1CCN(c2c(Cl)cccc2/C=C2\SC(=O)NC2=O)C1`, for which the results for the IC50 in [1], in [2] and in [9] were 0.025 µM, < 0.005 µM and < 0.006 µM, respectively.
On the same counts, the results for `O=C1NC(=O)/C(=C/c2ccccc2N2CCNCC2)S1` are 0.18 µM, 0.036 µM and 0.028 µM.
Turning to `N[C@@H]1CCCN(c2c(Cl)cccc2/C=C2\SC(=O)NC2=O)C1`, the IC50 in data set [1] is 0.005 µM; in data set [2], < 0.003 µM; in data set [3], 0.31 µM; in [4] it was 0.02 µM; in [6], 0.02 µM; in [9], < 0.003 µM. Also, in data set [10], the intrinsic clearance (microsomal CLint) at 2 µM came to 8.8 µL/min/mg. Halving of growth in data set [8] (GI50) required 0.19 µM.
For `N[C@@H]1CCCN(c2c(Br)cccc2/C=C2\SC(=O)NC2=O)C1`, the inhibition in [11], in data set [13] and in [14] was > 50% throughout. Moreover, the IC50 is < 0.003 µM in data set [1]; < 0.003 µM in [2]; 0.15 µM in data set [3]; 0.01 µM in data set [4]; > 30 µM in data set [5]; 0.01 µM in [6]. In addition, the half-maximal inhibitory concentration (IC50) in data set [9] was < 0.003 µM. Besides, the inhibition entry in data set [12] and in data set [15] was “inactive” each time. Also, in data set [7], the solubility (thermodynamic) at 24 h is > 720 µM. The microsomal CLint at 2 µM in data set [10] is < 4.8 µL/min/mg. In addition, it took 0.1 µM to inhibit growth in data set [8] by half (GI50).
Turning to `N[C@H]1CCN(c2ccccc2/C=C2\SC(=O)NC2=O)C1`, the 50% inhibitory concentration (IC50) was 0.25 µM in data set [1], 0.042 µM in [2] and 0.036 µM in data set [9].
As to `COc1ccc(/C=C2\SC(=O)NC2=O)cc1OC`, the 50% inhibitory concentration (IC50) in data set [1] was determined as 2.5 µM; in data set [2], 0.28 µM; in data set [9], 0.95 µM.
Regarding `N[C@H]1CCN(c2cc(Cl)ccc2/C=C2\SC(=O)NC2=O)C1`, the half-inhibitory concentration (IC50) is 0.079 µM in data set [1], 0.005 µM in data set [2] and 0.012 µM in [9].
As to `CC(C)Oc1cccc(/C=C2\SC(=O)NC2=O)c1N1CCC[C@@H](N)C1`, the IC50 in data set [1] is < 0.003 µM; in data set [2] it was < 0.003 µM; in [3], 0.05 µM; in data set [4], < 0.004 µM; in data set [6], < 0.003 µM; in data set [9], < 0.003 µM. Further, the thermodynamic solubility at 24 h in data set [7] came out at 378 µM (≈ 137 µg/mL). Besides, the intrinsic clearance (microsomal CLint) at 2 µM in data set [10] is < 4.8 µL/min/mg. In [8], this compound registered a concentration for 50% growth inhibition (GI50) of 0.02 µM.
`CC(C)COc1cccc(/C=C2\SC(=O)NC2=O)c1N1CCC[C@@H](N)C1`: the IC50 in data set [1] is < 0.004 µM; in [2] it was < 0.003 µM; in data set [3], 0.14 µM; in data set [4], 0.008 µM; in [5] it was 23 µM; in [6] it was < 0.003 µM. The concentration for half-maximal inhibition (IC50) in data set [9] is < 0.003 µM. Further, in data set [7], the solubility (thermodynamic) at 24 h came to 337 µM (≈ 127 µg/mL). For the same compound, the intrinsic clearance (microsomal CLint) at 2 µM in data set [10] came to 6.9 µL/min/mg. This compound returned a GI50 in data set [8] of 0.08 µM.
As to `N[C@@H]1CCCN(c2c(/C=C3\SC(=O)NC3=O)cccc2-c2ccccc2)C1`, the IC50 in data set [5] was > 30 µM. In addition, the solubility (thermodynamic) at 24 h in data set [7] amounted to 263 µM (≈ 99.8 µg/mL). The intrinsic metabolic clearance (microsomal CLint) at 2 µM in data set [10] is < 4.8 µL/min/mg. Further, the GI50 in data set [8] amounted to 0.02 µM.
For the compound `COc1cccc(/C=C2\SC(=O)NC2=O)c1N1CCC[C@@H](N)C1`, the half-inhibitory concentration (IC50) was 0.005 µM in [1]; < 0.003 µM in data set [2]; 0.32 µM in data set [3]; 0.02 µM in data set [4]; 0.01 µM in data set [6]; < 0.003 µM in [9]. Besides, the solubility (thermodynamic) at 24 h in data set [7] is > 1000 µM. Besides, the microsomal CLint at 2 µM in data set [10] is 3.9 µL/min/mg. The GI50 in data set [8] is 0.21 µM.
In the case of `CN(C)C1CCN(c2ccccc2/C=C2\SC(=O)NC2=O)C1` (configuration not stated), the IC50 stood at 0.5 µM in data set [1], 0.11 µM in data set [2] and 0.061 µM in [9].
For the compound `O=C1NC(=O)/C(=C/c2ccccc2)S1`, the pKa in [16] came to 6.14. For the same compound, the half-inhibitory concentration (IC50) worked out at 4.7 µM in data set [1], 0.73 µM in data set [2] and 0.89 µM in [9].
With `CC(C)(C)OC(=O)N[C@H]1CCN(c2ccccc2/C=C2\SC(=O)NC2=O)C1`, the IC50 came out at 15 µM in data set [1], 3.2 µM in data set [2] and 1.5 µM in data set [9].

As a reminder, the IC50 is the concentration at which inhibition is half-maximal. Broadly, the thermodynamic solubility is the concentration in solution at equilibrium with solid. In general, GI50 refers to the concentration at which growth is held to half of that of the control. Read a low GI50 as more potent growth inhibition. The microsomal CLint is the capacity of the preparation to metabolise the compound, expressed as a volume cleared per time. The inhibition is the percentage by which the read-out fell short of the control. The term pKa denotes the negative logarithm of the acid dissociation constant.
